Assay results: ChEMBL document CHEMBL5724709, “EUbOPEN Chemogenomics Library - IncuCyte” (2024)

Key:
Type in all cases: toxicity, cell-based
HEK-293T = assay: Incucyte cell viability with HEK293T; conditions: human, 24 h, 10 µM, compound concentration 10 uM
U2OS = assay: Incucyte cell viability with U2OS; conditions: human, 24 h, 10 µM, compound concentration 10 uM
Fibroblast = assay: Incucyte cell viability with human fibroblast; conditions: 24 h, 10 µM, compound concentration 10 uM
Also: unitless GR value; below 1 slowed growth and below 0 cell loss.

SMILES	Growth Rate (HEK-293T; replicate number 1)	Growth Rate (U2OS; replicate number 1)	Growth Rate (U2OS; replicate number 2)	Growth Rate (Fibroblast; replicate number 1)	Growth Rate (Fibroblast; replicate number 2)	Growth Rate (HEK-293T; replicate number 2)
COc1cc(Oc2ccnc3cc(OC)c(OC)cc23)ccc1NC(=O)NC(C)c1nccs1 (centres undefined)	1	0.56	0.82	0.18	-0.01	–
CCN1C(C)(C)CC(Oc2ccc(C(=O)Nc3ccc(NC(=O)Nc4cc(C(C)(C)C)on4)cc3)nc2)CC1(C)C	-0.29	0.51	0.66	0.74	0.78	0.58
Cc1cc(OCc2nnc(SC3CCCC3)n2-c2cccnc2)ccc1-c1ccc(S(C)(=O)=O)cc1	-0.22	-0.5	-0.4	-0.37	-0.82	–
N=C(N)N/N=C/c1cccc(Cl)c1Cl	0.5	0.24	0.53	0.46	0.86	0.8
O=C(Nc1ccc2[nH]nc(-c3ccncc3)c2c1)[C@@H]1CCN(CC(=O)N2CCN(c3ccc(-c4ncccn4)cc3)CC2)C1	-0.08	0.65	1	1	–	-0.01
O=C(C1CC1)N1CC[C@@H](Cc2n[nH]c(=O)n2-c2ccc(-c3ccc4occc4c3)cc2)C1	0.73	0.54	0.69	0.43	0	1
O=C(NO)c1cnc(NC2(c3ccccc3)CC2)nc1	0.73	-0.38	-0.13	-0.29	0.31	0.94
O=C(c1ccc2c(ccn2-c2ccc(F)cc2)c1)N1CC(N2CCN(C(=O)c3nccs3)CC2)C1	0.76	0.99	0.91	0.6	1	0.97
CSc1cccc(Nc2ncc3cc(-c4c(Cl)cccc4Cl)c(=O)n(C)c3n2)c1	-0.41	-0.64	-0.15	-0.25	-0.52	0.24
Cc1cc(Cn2c(=O)n(Cc3cnc(C)s3)c(=O)c3cc(S(=O)(=O)NC4(C)CC4)ccc32)n(C)n1	0.6	0.64	0.54	0.47	0.68	0.74
C[C@@H]1CN(c2ncc(Cl)c(Nc3ccc4c(c3)n(CCC(C)(C)O)c(=O)n4C)n2)C[C@H](C)C1(F)F	0.18	0.72	0.69	0.91	-0.13	0.21
CC(C)(O)c1ccc(N2Cc3c(ccnc3-c3ccc(F)cc3OCC(F)(F)F)C2=O)cc1	0.87	0.05	1	0.68	0.44	1
[2H]C([2H])([2H])C1(C([2H])([2H])[2H])Cn2nc(-c3ccc(F)cn3)c(-c3ccnc4[nH]ncc34)c2CO1	0.81	0.32	0.8	0.73	1	0.89
COc1cccc(-c2nccc3c2CN(c2ccccc2)C3=O)c1	0.75	1	0.84	0.52	0.84	0.7
C[C@@H]1CN(c2nccc(Nc3ccc4c(c3)n(CCC(C)(C)O)c(=O)n4C)n2)C[C@H](C)C1(F)F	0.03	0.72	0.76	0.74	1	0.19
CC(=O)Nc1ccc(-c2cc(-c3ccccc3)nc3cc(C(=O)NCCCn4ccnc4)nn23)cc1	0.47	1	0.62	0.41	1	0.63
O=C(NCCCn1ccnc1)c1cc2nc(-c3ccccc3)cc(-c3ccccc3)n2n1	0.48	0.13	0.75	0.96	1	0.98
Cc1ncsc1-c1ccc(CNC(=O)[C@@H]2C[C@@H](O)CN2C(=O)[C@@H](NC(=O)COCCOCCOc2ccc(-c3ccc4ncnc(Nc5ccc(OCc6cccc(F)c6)c(Cl)c5)c4c3)cc2)C(C)(C)C)cc1	1	1	0.6	1	0.62	–
